How the values were obtained:
Experiment in all cases: NCI human tumor cell panel
[1] = test system: A498; format: cell-based; conditions: A498, read-out: Log10 LC50 (converted)
Excerpt: (§1) Considering the diversity of tumors in terms of cell type, morphology, growth rate and other cellular characteristics, the U.S. National Cancer Institute (NCI) has developed a "disease-oriented" approach to antitumor activity screening (M.R. Boyd, in "Principle of Practice of Oncology" J.T. Devita, S. Hellman, S.A. Rosenberg (Eds.) Vol. 3, PPO Update, No. 10, 1989). This in vitro prescreening system is based on the measurement of antitumor cytotoxicity against human tumor cell line panels consisting of approximately 60 cell lines of major human tumors (including leukemia and slower growing tumor cells such as lung, colon, breast, skin, kidney, etc.). The most important advantage of the new in vitro screening panels is the opportunity to identify compounds that are selectively more cytotoxic to cells of slowly growing solid tumors than to rapidly growing leukemia cells.
(§2) The cytotoxic activity of the present selenophene compounds have been measured utilizing two different assays or screens. The first screen measures the cytotoxicity against a panel of sixty different human tumor cell lines. This assay provides data regarding the general cytotoxicity of an individual compound. In particular this type of assay is useful in identifying compounds which have enhanced cytotoxic activity against slow growing tumors as compared to faster growing tumor cells such as leukemia tumor cell lines. The identification of such compounds is critical since previously identified antitumor agents have low cytotoxic activity against slower growing tumors. […] The specificity of a cytotoxic compound for tumor cell lines relative to normal cells is an important characteristic of an effective antitumor agent.
(§3) Antitumor cytotoxicity data generated from the National Cancer Institute human tumor cell panels can also be expressed in a graphic pattern (mean graph) to display differential cell growth inhibition (K.D. Paull, R.H. Shoemaker, L. Hodes, A. Monks, D.A. Scudiero, L. Rubinstein, J. Plowman and M.R. Boyd, J. Nail. Cancer Inst., 81, 1088, 1989.) In the mean graph, the arithmetic mean of the logarithm of the GI50 (50% growth inhibition), TGI (total growth inhibition) or LC50 (50% lethal concentration) values is used as an anchor point. […] The length of a bar is indicative of differential cytotoxicity against a specific type of tumor cells or tumor panels.
(§4) The antitumor cytotoxicity of the selenophene compounds tested in those in vitro assays was measured by a microculture assay using either a 3-(4,5-dimethylthiazol-2-yl)-2,5-diphenyltetrazolium bromide (MTT) or sulforhodamine B (SRB) based assay. [M.R. Boyd in "Principles and Practices of Oncology," V.T. DeVita, Jr.]. The experiments were conducted at Purdue University in 96-well microtiter plates and the cytotoxic effects of the selenophene compounds on those cells were measured by cell count using a Coulter Z.F. counter (Hialeah, FL). The results are expressed as GI50, the concentration of drug at which cell numbers are reduced to 50% of control cell culture [T.C.K. Chan, C.J. Chang, N.M. Koonchanok and R.L. Geahlen, Biochem. Biophys. Res. Commun., 193, 1152, (1993); S. Hellman and S.A. Rosenberg (Eds.), Vol. 3, PPO Updates, Number 10, (1989).]
(§5) This in vitro microculture assay has an advantage over in vivo assays in that results are obtained within a week as opposed to several months. The MTT assay is based on the production of a dark blue formazan product by dehydrogenase in the mitochondria of live tumor cells after exposure to drug for 6 days [M.C. Alley, D.A. Scudiero, A. Monks, M.L. Hursey, M.J. Czerwinski, D.L. Fine, B.J. Abbott, J.G. Mayo, R.H. Shoemaker and M.R. Boyd, Cancer Res., 48, 589, 1988]. Thus, only live cells are stained and can be measured at 570 nm. […]

[2] = test system: A549/ATCC; format: cell-based; conditions: A549, read-out: Log10 LC50 (converted)
Excerpt: as §1, §2, §3, §4, §5

[3] = test system: BT-549; format: cell-based; conditions: BT-549, read-out: Log10 LC50 (converted)
Excerpt: as §1, §2, §3, §4, §5

[4] = test system: CCRF-CEM; format: cell-based; conditions: read-out: Log10 LC50 (converted)
Excerpt: as §1, §2, §3, §4, §5

[5] = test system: DU-145; format: cell-based; conditions: DU-145, read-out: Log10 LC50 (converted)
Excerpt: as §1, §2, §3, §4, §5

[6] = test system: HCT-116; format: cell-based; conditions: HCT-116, read-out: Log10 LC50 (converted)
Excerpt: as §1, §2, §3, §4, §5

[7] = test system: HCT-15; format: cell-based; conditions: HCT-15, read-out: Log10 LC50 (converted)
Excerpt: as §1, §2, §3, §4, §5

[8] = test system: HOP-62; format: cell-based; conditions: HOP-62, read-out: Log10 LC50 (converted)
Excerpt: as §1, §2, §3, §4, §5

[9] = test system: K-562; format: cell-based; conditions: K562, read-out: Log10 LC50 (converted)
Excerpt: as §1, §2, §3, §4, §5

[10] = test system: KM12; format: cell-based; conditions: KM12, read-out: Log10 LC50 (converted)
Excerpt: as §1, §2, §3, §4, §5

[11] = test system: MCF7/ADR-RES; format: cell-based; conditions: MCF7, read-out: Log10 LC50 (converted)
Excerpt: as §1, §2, §3, §4, §5

[12] = test system: MCF7; format: cell-based; conditions: MCF7, read-out: Log10 LC50 (converted)
Excerpt: as §1, §2, §3, §4, §5

[13] = test system: MDA-N; format: cell-based; conditions: read-out: Log10 LC50 (converted)
Excerpt: as §1, §2, §3, §4, §5

[14] = test system: OVCAR-5; format: cell-based; conditions: OVCAR-5, read-out: Log10 LC50 (converted)
Excerpt: as §1, §2, §3, §4, §5

[15] = test system: SF-539; format: cell-based; conditions: SF-539, read-out: Log10 LC50 (converted)
Excerpt: as §1, §2, §3, §4, §5

[16] = test system: SK-MEL-28; format: cell-based; conditions: SK-MEL-28, read-out: Log10 LC50 (converted)
Excerpt: as §1, §2, §3, §4, §5

[17] = test system: SN12C; format: cell-based; conditions: read-out: Log10 LC50 (converted)
Excerpt: as §1, §2, §3, §4, §5

[18] = test system: SW-620; format: cell-based; conditions: SW-620, read-out: Log10 LC50 (converted)
Excerpt: as §1, §2, §3, §4, §5

[19] = test system: U251; format: cell-based; conditions: U-251, read-out: Log10 LC50 (converted)
Excerpt: as §1, §2, §3, §4, §5

[20] = test system: SK-MEL-5; conditions: SK-MEL-5, read-out: Log10 LC50 (converted)
[21] = test system: MDA-MB-435; conditions: for CC50: MDA-MB-435, read-out: Log10 LC50 (converted)

| SMILES | CC50 [1] [µM] | CC50 [2] [µM] | CC50 [3] [µM] | CC50 [4] [µM] | CC50 [5] [µM] | CC50 [6] [µM] | CC50 [7] [µM] | CC50 [8] [µM] | LC50 [9] [µM] | CC50 [10] [µM] | CC50 [11] [µM] | CC50 [12] [µM] | LC50 (50% lethal concentration) [13] [µM] | CC50 [14] [µM] | CC50 [15] [µM] | CC50 [16] [µM] | CC50 [17] [µM] | CC50 [18] [µM] | CC50 [19] [µM] | CC50 [20] [µM] | further results |
| --- | --- | --- | --- | --- | --- | --- | --- | --- | --- | --- | --- | --- | --- | --- | --- | --- | --- | --- | --- | --- | --- |
| OCc1ccc(-c2ccc(-c3ccc(CO)[se]3)s2)[se]1 | 0.0955 | > 100 | > 100 | > 100 | > 100 | > 100 | > 100 | > 100 | > 100 | > 100 | > 100 | > 100 | > 100 | 0.776 | > 100 | > 100 | > 100 | > 100 | 46.8 | > 100 | CC50 [21]: > 100 µM; IC (TGI) ([21]; MDA-MB-435, read-out: Log10 TGI): > 100 µM |
| O=Cc1ccc(-c2ccc(-c3ccc(C=O)[se]3)s2)s1 | 0.331 | > 100 | > 100 | > 100 | > 100 | > 100 | > 100 | > 100 | > 100 | > 100 | > 100 | > 100 | > 100 | > 100 | > 100 | > 100 | > 100 | > 100 | > 100 | > 100 | CC50 [21]: > 100 µM |
| OCc1ccc(-c2ccc(-c3cccs3)[se]2)s1 | 0.0661 | > 100 | > 100 | > 100 | > 100 | 2.95 | > 100 | > 100 | > 100 | > 100 | > 100 | > 100 | > 100 | > 100 | > 100 | > 100 | > 100 | > 100 | > 100 | > 100 | CC50 [21]: > 100 µM |

From patent EP1021178B1, “SELENOPHENE ANTI-TUMOR AGENTS” (Purdue Research Foundation, priority 1996, dated 1997)
